Measured values as given in article PMC11222350, “Preclinical evaluation of [^18F]FP-CIT, the radiotracer targeting dopamine transporter for diagnosing Parkinson’s disease: pharmacokinetic and efficacy analysis” (EJNMMI Research, 2024).

Assay: Biodistribution and pharmacokinetic constants of [^18F]FP-CIT in normal mice
Type: in vivo, C57BL/6 mice
Conditions: for AUC / CL / Cmax / T1/2 / Tmax: normal mice (group I), 3.7 MBq i.v.
Procedure: Male C57BL/6 mice (group I) were anesthetized with 2% isoflurane in oxygen, and 3.7 MBq of [^18F]FP-CIT was intravenously injected via the tail vein. Mice were sacrificed at different time points (1, 5, 10, 30, 60, and 120 min after injection, n = 4 each), and the tissues of interest (blood, muscle, heart, lung, liver, spleen, stomach, intestine, kidney, bone, cerebellum, striatum, and remaining brain tissues) were harvested, weighed, and measured for radioactivity using a gamma counter (Wizard 1480; PerkinElmer, Waltham, MA, USA). The uptake in each tissue sample was expressed as a percentage of the injected dose per gram (%ID/g). The pharmacokinetic constants of [^18F]FP-CIT in normal C57BL/6 mice were calculated from the %ID/g results of its biodistribution.

[1] = 1 min post-injection (highest uptake), normal mice

With `COC(=O)[C@H]1[C@@H](c2ccc(I)cc2)C[C@@H]2CC[C@H]1N2CCCF` [[^18F]FP-CIT, N-(3-fluoropropyl)-2β-carboxymethoxy-3β-(4-iodophenyl) nortropane] the uptake in cerebellum [1] was 21.42 ± 12.19 %ID/g, the uptake in striatum [1] was 23.50 ± 12.46 %ID/g and the “uptake in the rest of the brain” value [1] was 20.06 ± 12.12 %ID/g. The “uptake in the liver” value (60 min after injection (highest uptake), normal mice) was 30.82 ± 1.64 %ID/g, the AUC (blood) was 95.43 ± 4.34 %ID*min/g and the CL (blood) was 1.05 ± 0.05 cc/min. For the same compound, the Cmax (blood) was 2.68 ± 0.12 %ID/g, the T1/2 (blood) was 11.12 ± 1.83 min and the Tmax (blood) was 1.00 ± 0.00 min. It also gave an AUC (bone) of 636.73 ± 25.74 %ID*min/g, a CL (bone) of 0.16 ± 0.01 cc/min and a Cmax (bone) of 9.55 ± 1.48 %ID/g. For the same compound, the T1/2 (bone) was 114.55 ± 23.62 min, the Tmax (bone) was 120.00 ± 0.00 min and the “time of maximum concentration” value (brain, normal mice) was 1 min. The AUC (cerebellum) was 174.48 ± 20.00 %ID*min/g, the CL (cerebellum) was 0.58 ± 0.07 cc/min and the Cmax (cerebellum) was 10.97 ± 9.59 %ID/g. The T1/2 (cerebellum) was 17.30 ± 17.89 min, the Tmax (cerebellum) was 1.00 ± 0.00 min and the AUC (heart) was 180.65 ± 13.75 %ID*min/g. The CL (heart) was 0.56 ± 0.04 cc/min, the Cmax (heart) was 7.71 ± 0.74 %ID/g and the T1/2 (heart) was 62.29 ± 4.86 min. It also gave a Tmax (heart) of 1.00 ± 0.00 min, an AUC (intestine) of 614.35 ± 28.65 %ID*min/g and a CL (intestine) of 0.16 ± 0.01 cc/min. For the same compound, the Cmax (intestine) was 6.00 ± 0.47 %ID/g, the T1/2 (intestine) was 497.98 ± 350.19 min and the Tmax (intestine) was 19.00 ± 27.58 min. It also gave an AUC (kidney) of 680.50 ± 45.28 %ID*min/g, a CL (kidney) of 0.15 ± 0.01 cc/min and a Cmax (kidney) of 31.96 ± 5.10 %ID/g. For the same compound, the T1/2 (kidney) was 89.82 ± 11.39 min, the Tmax (kidney) was 1.00 ± 0.00 min and the AUC (liver) was 3095.50 ± 181.39 %ID*min/g. It also gave a CL (liver) of 0.03 ± 0.00 cc/min, a T1/2 (liver) of 26.50 ± 4.4 min and a Tmax (liver) of 4.00 ± 2.00 min. For the same compound, the AUC (lung) was 408.70 ± 65.06 %ID*min/g, the CL (lung) was 0.25 ± 0.04 cc/min and the Cmax (lung) was 21.31 ± 3.18 %ID/g. For the same compound, the T1/2 (lung) was 79.46 ± 10.66 min, the Tmax (lung) was 1.00 ± 0.00 min and the “uptake in the intestine” value (maintained for 120 min after injection, normal mice) was “approximately 5 %ID/g”. The AUC (muscle) was 150.08 ± 13.03 %ID*min/g, the CL (muscle) was 0.67 ± 0.06 cc/min and the Cmax (muscle) was 2.42 ± 0.98 %ID/g. For the same compound, the T1/2 (muscle) was 137.84 ± 198.01 min, the Tmax (muscle) was 5.00 ± 0.00 min and the AUC (rest of the brain) was 244.03 ± 34.63 %ID*min/g. For the same compound, the CL (rest of the brain) was 0.42 ± 0.06 cc/min, the Cmax (rest of the brain) was 17.19 ± 16.17 %ID/g and the T1/2 (rest of the brain) was 55.64 ± 29.71 min. It also gave a Tmax (rest of the brain) of 1.00 ± 0.00 min, an AUC (spleen) of 288.90 ± 39.35 %ID*min/g and a CL (spleen) of 0.35 ± 0.05 cc/min. The Cmax (spleen) was 14.52 ± 1.35 %ID/g, the T1/2 (spleen) was 81.36 ± 16.91 min and the Tmax (spleen) was 3.00 ± 2.31 min. It also gave an AUC (stomach) of 444.70 ± 47.17 %ID*min/g, a CL (stomach) of 0.23 ± 0.02 cc/min and a Cmax (stomach) of 7.14 ± 1.99 %ID/g. It also gave a T1/2 (stomach) of 177.39 ± 36.93 min, a Tmax (stomach) of 7.50 ± 2.89 min and an AUC (striatum) of 223.30 ± 37.82 %ID*min/g. It also gave a CL (striatum) of 0.46 ± 0.08 cc/min, a T1/2 (striatum) of 39.62 ± 18.71 min and a Tmax (striatum) of 1.00 ± 0.00 min.
